# Measurements as given in patent publication US20220096650A1 (Glaxosmithkline Intellectual Property Development Limited, priority 2019, published 2022).
# Experiments:
# [1] = system: CD4 and CD8 cells in PBMC; test: IFNγ and IL-4 production by T cells upon anti-CD3/anti-CD28 stimulation in PBMC; format: cell-based, human; conditions: 48 and 72 hours
# Description: This study was repeated two times (n=2) with blood from two different donors. 100 μL PBMCs (1×10^6 cells/mL) in RPMI-1640 with 10% FBS were added into anti-CD3 antibody coated wells with or without soluble 0.5 μg/mL anti-CD28 antibody. […] Three technical replicates were included for each assay condition. At the end of the study, cells were transferred, washed, stained and analyzed by flow cytometry as described in section 3.1. For intracellular staining, cells were fixed by cytofix buffer (BD Biosciences, Catalog #554655) at room temperature for 20 minutes and permeablized by perm/wash buffer (BD Biosciences, catalog #554723) at room temperature for 30 minutes before staining with antibodies or isotype controls.
# The raw percentage and MFI data for each marker at each concentration of BCMA ADC was compared to the corresponding IgG control in the statistical analysis. To account for the variability of the different blood donors, a linear mixed effect model was used to analyze the data. […]
# For data reporting, the average percentage or average MFI value among three technical replicates was generated at each BCMA ADC concentration and the % difference values were calculated as: % difference=(Avg 916−Avg IgG)*100/Avg IgG, where Avg 916 and Avg IgG represent the average values of the BCMA ADC treatment group and the IgG control group, respectively. […]
# NCI-H929 = test: Immunogenic cell death markers (ATP, HMGB1, CRT) after 48 hour treatment; format: cell-based, human
# Excerpt: The process of immunogenic cell death can induce the production of danger molecules that lead to the activation of dendritic cells (see FIG. 1A—ICD is a special type of apoptosis often associated with the cellular release of ATP and HMGB1, and exposure of CRT at the cellular membrane. ICD induces an immune response through engagement of the antigen presentation process by dendritic cells (DCs)). […] Anti-BCMA-MMAF induced ATP release, HMGB1 release and CRT exposure only in NCI-H929, a BCMA positive MM cell line). To investigate the effect of NCI-H929 cell killing by BCMA ADC on the activation of dendritic cells, co-culture experiments were carried out with BCMA ADC treated NCI-H929 cells and immature dendritic cells (iDCs) differentiated from human monocytes in vitro with GM-CSF/IL-4 treatment. A number of dendritic cell maturation markers as well as IL-10 and IL-12p70, two major cytokines secreted by dendritic cells upon activation, were monitored in this process to assess the effect of BCMA ADC induced cell death on dendritic cell activation.
# [2] = Hallmarks of immunogenic cell death in vivo and in vitro (Example 7)
# CD4+ and CD8+ T cells = test: T cell proliferation upon anti-CD3/anti-CD28 stimulation (CFSE); format: cell-based, human; conditions: 96 hours; 3 donors
# Description: Fresh normal peripheral blood isolated CD4+ or CD8+ T cells were received and counted using a Beckman Coulter ViCell then centrifuged at 330 g for 7 minutes. Cells were then stained with Molecular Probes Cell Trace CFSE (cat #C34554) proliferation dye (5-10 μM) in PBS/0.5% BSA. Cells were incubated for 5 minutes on ice prior to a further incubation for 5 minutes on ice in cold RPMI 1640/10% FBS. Any free dye was removed by two further cell centrifugations at 300 g for 5 minutes. Cells were resuspended in complete media RPMI 1640/10% FBS/IL-2 (2.8 ng/mL). Cells were then seeded (10^5 cells/100 μL volume/well) in a 96 well tissue culture plates pre-coated with anti-CD3 (1 μg/mL) and anti-CD28 (1 μg/mL). […] After the 4 day incubation, cell supernatant was harvested and frozen at minus 80° C. and the cells were collected for flow cytometry staining. Analyzed using a CANTO II flow cytometer with 488 nm excitation and emission filters appropriate for fluorescein (FITC) for Cell Trace CFSE. FIG. 4D) Effect of BCMA ADC on proliferation of CD4+ and CD8+ T cells. CD4+ and CD8+ T cells stimulated with anti-CD3 and anti-CD28 antibodies in the presence or absence of various concentrations of BCMA ADC. After 96 hours cell proliferation was analyzed by flow cytometry. Data represent mean±SD from 3 different donors.
# [3] = system: NCI-H929 Multiple Myeloma cells; test: IL-10 in supernatants of NCI-H929 cells cultured alone; format: cell-based, human; conditions: 48 hours, 0.1, 1, 10 μg/mL
# Description: Fresh, whole Human blood was obtained from three healthy donors from the Upper Providence Blood Donation Unit with syringes coated in liquid sodium heparin (Sagent 10 IU/mL final concentration). Monocytes were isolated from fresh, whole human blood using the RosetteSep Monocyte Enrichment kit (Cat. #15068) and were assessed for expression of cell surface CD14 (BD Bioscience Cat. #562698) using flow cytometry. Isolated Monocytes (1.5×10^6 cells/well) were cultured in 2 mLs of X-Vivo-15 Media supplemented with 1% autologous plasma, 50 ng/mL recombinant human GM-CSF (R&D, 215-GM-050) and 100 ng/mL recombinant human IL-4 (R&D, 204-IL-050) for 7 Days at 37° C./5% CO2. The cultures received a half media change at Day 3 or 4 while maintaining stimulation factor concentrations. NCI-H929 Multiple Myeloma cells were passaged for 2 passages from thaw at 37° C., 5% CO2, 90% humid air in RPMI-1640 supplemented with 10% FBS. Cells were plated at a density of 7.5×10^5 cells/ml in 2 mLs on 12 well plates. […]
# FIG. 3C: IL-10 decreased with BCMA ADC treatment in supernatants from NCI-H929 Multiple Myeloma cells cultured alone. IL-10 was measured in Untreated (a), IgG Control (b), 0.1 (c), 1 (d), and 10 μg/mL BCMA ADC (e) treated (48 hours) NCI-H929 Multiple Myeloma cells.
# multiple myeloma = test: Phase 1 clinical trial in relapsed and refractory multiple myeloma patients; format: in vivo, human
# Excerpt: Multiple myeloma (MM) is a disease that affects plasma cells and leads to devastating clinical features. MM is the second most common hematological malignancy and remains an incurable disease. Therefore, novel targeted therapies are in need.
substance,measurement,setting,value
GSK2857916,IFNγ production,[1],no significant effect
same,IL-4 production,[1],no significant effect
same,HMGB1 release,"NCI-H929; cellular supernatant, ELISA, only in NCI-H929",induced
same,ATP release,"NCI-H929; cellular supernatant, luminescence, only in NCI-H929, a BCMA positive MM cell line",induced
same,CRT exposure,"NCI-H929; flow cytometry, only in NCI-H929",induced
same,"hallmarks of ICD (cell surface calreticulin and other ER stress response proteins, secretion of HMGB1)",[2],induces hallmarks of ICD
same,proliferation of CD4+ and CD8+ T cells,CD4+ and CD8+ T cells,does not appear to have direct effects
same,IL-10 in supernatants,[3],decreased
same,overall response rate,multiple myeloma,60%
